According to patent US8415469B2, “Compounds and methods for kinase modulation, and indications therefor” (Plexxikon Inc., priority 2005, dated 2013):

Legend:
Format in all cases: biochemical
Stk6 = molecular target: T1, Stk6 (Homo sapiens, UniProt O14965); assay: Z'-Lyte FRET kinase assay (Invitrogen), Stk6; conditions: read-out: IC50, activity toward kinase Stk6
T1 construct: purchased Invitrogen (Carlsbad, Calif.), screening service
T1 sequence (O14965 1-403): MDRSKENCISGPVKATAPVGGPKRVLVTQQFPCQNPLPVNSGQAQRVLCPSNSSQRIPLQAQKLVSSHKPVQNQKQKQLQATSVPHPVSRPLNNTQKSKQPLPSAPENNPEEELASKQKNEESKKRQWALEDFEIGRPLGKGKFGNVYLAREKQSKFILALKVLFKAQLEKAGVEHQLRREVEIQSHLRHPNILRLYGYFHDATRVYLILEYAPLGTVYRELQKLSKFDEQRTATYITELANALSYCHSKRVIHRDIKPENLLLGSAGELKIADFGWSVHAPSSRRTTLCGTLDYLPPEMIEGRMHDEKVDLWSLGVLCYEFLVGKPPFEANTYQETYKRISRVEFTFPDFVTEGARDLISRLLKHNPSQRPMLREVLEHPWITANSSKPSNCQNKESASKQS

Btk = molecular target: T2, Btk (Homo sapiens, UniProt Q06187); assay: Z'-Lyte FRET kinase assay (Invitrogen), Btk; conditions: read-out: IC50, activity toward kinase Btk
T2 construct: purchased Invitrogen (assay run by Invitrogen)

Gsk3β = Gsk3β (Homo sapiens, UniProt P49841); assay: AlphaScreen kinase assay, Gsk3β; conditions: read-out: IC50, activity toward kinase Gsk3β
Source text: AlphaScreen assay was used to screen additional kinases. The assay is similarly dependent on the phosphorylation of a peptide substrate. In this assay, an antibody that recognizes phosphorylated substrate is bound to an acceptor bead. The peptide substrate is attached to biotin, which binds to a donor head that contains streptavidin. Thus phosphorylated substrate is bound by antibody and streptavidin, bringing the donor and acceptor heads into close proximity when kinase is not inhibited. The donor produces singlet oxygen which results in emission from the acceptor when they are in close proximity. Conversely, when kinase is inhibited, the donor and acceptor beads are not associated and the emission from the acceptor is reduced.
AlphaScreen assays were done using compounds dissolved in DMSO to a concentration of 20 mM. The compounds were diluted accordingly to the desired final concentrations in each sample well, using 1:3 serial dilution for a total of 8 concentration points.

Ret = molecular target: T3, Ret (Homo sapiens, UniProt P07949); assay: AlphaScreen kinase assay, Ret; conditions: read-out: IC50, activity toward kinase Ret
T3 construct: P1378.pET-SF BI-PTP RET H661-R1012 HIS; made in house
T3 sequence (P07949 with tags, fused parts or gaps): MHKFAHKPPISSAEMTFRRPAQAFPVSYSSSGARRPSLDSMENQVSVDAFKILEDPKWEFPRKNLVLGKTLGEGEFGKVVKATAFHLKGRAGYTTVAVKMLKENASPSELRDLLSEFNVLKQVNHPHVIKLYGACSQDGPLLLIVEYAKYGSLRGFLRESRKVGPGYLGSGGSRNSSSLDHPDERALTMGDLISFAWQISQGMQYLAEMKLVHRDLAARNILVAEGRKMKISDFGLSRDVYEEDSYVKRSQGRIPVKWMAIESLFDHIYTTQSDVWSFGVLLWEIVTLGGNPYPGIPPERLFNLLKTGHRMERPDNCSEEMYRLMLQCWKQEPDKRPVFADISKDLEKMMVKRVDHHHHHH

Fms = molecular target: T4, Fms (Homo sapiens, UniProt P07333); assay: AlphaScreen kinase assay, Fms; conditions: read-out: IC50, activity toward kinase Fms
T4 construct: purchased Upstate Biotechnology

FGFR1 = molecular target: T5, FGFR1 (Homo sapiens, UniProt P11362, C488A/C584S); assay: AlphaScreen kinase assay, FGFR1; conditions: read-out: IC50, activity toward kinase FGFR
T5 construct: P1351.pET N6 BI-PTP FGFR A458-E765-X C488A, C584S; made in house; host or cells: E. coli (PTP1B co-expressed)

B-Raf V600E = molecular target: T6, B-Raf V600E (Homo sapiens, UniProt P15056, V600E); assay: AlphaScreen kinase assay, B-Raf V600E; conditions: read-out: IC50, activity toward kinase B-Raf V600E
T6 construct: P4254. pFastBacBD-CDC37 BRAF D437-K722-X, V600E; His6 with pFastBac HT leader (TEV site) (N); made in house; host or cells: Sf9 (baculovirus; chaperone CDC37 co-expressed)

c-Raf-1 = molecular target: T7, c-Raf-1 (Homo sapiens, UniProt P04049); assay: AlphaScreen kinase assay, c-Raf-1; conditions: read-out: IC50, activity toward kinase c-Raf-1
T7 construct: purchased Upstate Biotechnology

B-Raf = molecular target: T8, B-Raf (Homo sapiens, UniProt P15056); assay: AlphaScreen kinase assay, B-Raf; conditions: read-out: IC50, activity toward kinase B-Raf
T8 construct: purchased Upstate Biotechnology

Kdr = molecular target: T9, Kdr (Homo sapiens, UniProt P35968); assay: Z'-Lyte FRET kinase assay (Invitrogen), Kdr; conditions: read-out: IC50, activity toward kinase Kdr
T9 construct: purchased Invitrogen (assay run by Invitrogen)

Kit = molecular target: T10, Kit (Homo sapiens, UniProt P10721); assay: AlphaScreen kinase assay, Kit; conditions: read-out: IC50, activity toward kinase Kit
T10 construct: P1332.N6 BI PTP KIT M552-K948-X COD; His6 (N); made in house; host or cells: E. coli (PTP1B co-expressed)

Flt1 = molecular target: T11, Flt1 (Homo sapiens, UniProt P17948); assay: AlphaScreen kinase assay, Flt1; conditions: read-out: IC50, activity toward kinase Flt1
T11 construct: P1826.pETN6 BI-PTP FLT1 M799-D1165-X WT; His6 (N); made in house; host or cells: E. coli (PTP1B co-expressed)
T11 sequence (P17948 with tags, fused parts or gaps): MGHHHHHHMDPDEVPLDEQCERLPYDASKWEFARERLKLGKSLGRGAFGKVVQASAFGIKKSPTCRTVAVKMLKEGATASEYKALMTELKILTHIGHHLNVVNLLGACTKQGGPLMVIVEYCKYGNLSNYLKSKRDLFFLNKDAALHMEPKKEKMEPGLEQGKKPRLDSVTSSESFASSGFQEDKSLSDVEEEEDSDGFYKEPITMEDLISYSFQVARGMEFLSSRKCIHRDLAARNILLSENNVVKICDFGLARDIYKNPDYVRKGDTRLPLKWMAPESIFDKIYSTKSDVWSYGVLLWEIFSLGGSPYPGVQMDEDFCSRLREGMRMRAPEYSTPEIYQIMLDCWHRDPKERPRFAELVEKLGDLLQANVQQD

MAP4K4 = MAP4K4 (Homo sapiens, UniProt O95819); assay: AlphaScreen kinase assay, MAP4K4; conditions: read-out: IC50, activity toward kinase MAP4K4
Jnk1 = molecular target: T12, Jnk1 (Homo sapiens, UniProt P45983); assay: AlphaScreen kinase assay, Jnk1; conditions: read-out: IC50, activity toward kinase Jnk1
T12 construct: purchased Upstate Biotechnology
Protocol: (§1) AlphaScreen assays were done using compounds dissolved in DMSO to a concentration of 20 mM. The compounds were diluted accordingly to the desired final concentrations in each sample well, using 1:3 serial dilution for a total of 8 concentration points. Plates were prepared such that each kinase reaction is 20 μl in 1× kinase buffer, 5% DMSO and 10 μM ATP. After incubation of the kinase reaction for 1 hour at room temperature, 5 μl of donor beads in stop buffer (50 mM EDTA in 1× kinase buffer) was added, the sample was mixed and incubated for 20 minutes at room temperature before adding 5 μl of acceptor beads in stop buffer. The samples were incubated for 60 minutes at room temperature and the signal per well was read on AlphaQuest reader.

Pyk2 = molecular target: T13, Pyk2 (Homo sapiens, UniProt Q14289); assay: AlphaScreen kinase assay, Pyk2; conditions: read-out: IC50, activity toward kinase Pyk2
T13 construct: purchased Upstate Biotechnology

Jnk3 = molecular target: T14, Jnk3 (Homo sapiens, UniProt P53779); assay: AlphaScreen kinase assay, Jnk3; conditions: read-out: IC50, activity toward kinase Jnk3
T14 construct: purchased Upstate Biotechnology

Fak = molecular target: T15, Fak (Homo sapiens, UniProt Q05397); assay: AlphaScreen kinase assay, Fak; conditions: read-out: IC50, activity toward kinase Fak
T15 construct: P1358.pFastBacHtb FAK S411-Q686-X; His6 with pFastBacHTb leader (TEV site) (N); made in house; host or cells: Sf9 (baculovirus)

Src = molecular target: T16, Src (Homo sapiens, UniProt P12931); assay: AlphaScreen kinase assay, Src; conditions: read-out: IC50, activity toward kinase Src
T16 construct: P1144. pET-N6 BI-PTP SRC V86-L536-X; made in house
Protocol: as §1

Measured: IC50

T5 sequence (P11362 458-765 C488A/C584S): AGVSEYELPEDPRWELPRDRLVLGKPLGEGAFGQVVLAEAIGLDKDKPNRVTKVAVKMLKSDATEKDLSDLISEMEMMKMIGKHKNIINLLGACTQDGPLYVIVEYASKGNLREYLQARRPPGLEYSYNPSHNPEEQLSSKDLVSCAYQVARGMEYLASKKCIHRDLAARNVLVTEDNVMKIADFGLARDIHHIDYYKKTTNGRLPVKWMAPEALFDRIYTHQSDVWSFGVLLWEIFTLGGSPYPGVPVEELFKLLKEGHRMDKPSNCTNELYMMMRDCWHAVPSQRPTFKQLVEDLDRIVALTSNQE
T10 sequence (P10721 with tags, fused parts or gaps): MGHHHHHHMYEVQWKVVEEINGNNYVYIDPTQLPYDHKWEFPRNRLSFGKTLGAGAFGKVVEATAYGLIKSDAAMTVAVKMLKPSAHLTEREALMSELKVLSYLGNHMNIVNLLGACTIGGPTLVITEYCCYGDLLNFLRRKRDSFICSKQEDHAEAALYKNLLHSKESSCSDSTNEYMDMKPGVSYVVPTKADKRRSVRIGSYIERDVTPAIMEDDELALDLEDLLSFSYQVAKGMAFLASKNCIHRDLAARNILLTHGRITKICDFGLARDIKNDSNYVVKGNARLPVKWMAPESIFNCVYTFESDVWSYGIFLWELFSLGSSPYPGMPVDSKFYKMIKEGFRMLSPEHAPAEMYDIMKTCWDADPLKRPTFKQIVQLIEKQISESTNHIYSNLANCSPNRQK
Sequence of Gsk3β (P49841 whole entry): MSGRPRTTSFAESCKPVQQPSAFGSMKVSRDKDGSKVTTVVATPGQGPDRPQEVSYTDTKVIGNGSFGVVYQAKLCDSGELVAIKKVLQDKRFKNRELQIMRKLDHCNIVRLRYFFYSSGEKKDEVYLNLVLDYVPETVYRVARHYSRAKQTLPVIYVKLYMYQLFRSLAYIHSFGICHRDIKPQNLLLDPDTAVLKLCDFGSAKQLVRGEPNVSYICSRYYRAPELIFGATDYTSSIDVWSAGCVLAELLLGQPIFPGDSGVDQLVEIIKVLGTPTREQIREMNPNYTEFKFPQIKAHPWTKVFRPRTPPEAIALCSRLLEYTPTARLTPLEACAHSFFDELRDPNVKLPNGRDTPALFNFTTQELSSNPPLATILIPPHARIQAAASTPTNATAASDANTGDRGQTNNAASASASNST
T4 sequence (P07333 20-972): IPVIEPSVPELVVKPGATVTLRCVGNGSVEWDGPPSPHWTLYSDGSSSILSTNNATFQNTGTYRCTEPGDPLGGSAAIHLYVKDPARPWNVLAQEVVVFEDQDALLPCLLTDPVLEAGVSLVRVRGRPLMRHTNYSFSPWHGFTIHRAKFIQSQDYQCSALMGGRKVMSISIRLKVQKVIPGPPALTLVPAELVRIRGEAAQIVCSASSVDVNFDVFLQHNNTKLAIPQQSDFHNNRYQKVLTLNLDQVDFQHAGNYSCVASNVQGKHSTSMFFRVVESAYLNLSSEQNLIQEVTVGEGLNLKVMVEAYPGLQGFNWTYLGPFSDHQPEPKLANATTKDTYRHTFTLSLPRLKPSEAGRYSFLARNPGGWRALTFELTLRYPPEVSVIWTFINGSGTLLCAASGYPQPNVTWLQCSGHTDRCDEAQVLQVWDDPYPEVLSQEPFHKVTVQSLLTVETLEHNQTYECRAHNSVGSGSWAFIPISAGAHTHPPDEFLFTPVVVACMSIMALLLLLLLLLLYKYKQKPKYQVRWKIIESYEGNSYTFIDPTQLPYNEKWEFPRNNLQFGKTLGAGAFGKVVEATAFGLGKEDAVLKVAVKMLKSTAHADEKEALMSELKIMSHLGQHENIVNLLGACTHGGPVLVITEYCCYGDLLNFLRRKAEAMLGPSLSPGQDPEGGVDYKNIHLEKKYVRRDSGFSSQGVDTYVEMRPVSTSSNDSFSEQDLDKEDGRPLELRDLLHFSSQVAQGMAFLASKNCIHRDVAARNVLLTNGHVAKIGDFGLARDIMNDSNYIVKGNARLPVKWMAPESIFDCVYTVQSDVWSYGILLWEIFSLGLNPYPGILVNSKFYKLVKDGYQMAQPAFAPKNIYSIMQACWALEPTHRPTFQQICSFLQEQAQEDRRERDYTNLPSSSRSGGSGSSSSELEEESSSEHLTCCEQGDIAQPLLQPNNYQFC
T7 sequence (P04049 whole entry): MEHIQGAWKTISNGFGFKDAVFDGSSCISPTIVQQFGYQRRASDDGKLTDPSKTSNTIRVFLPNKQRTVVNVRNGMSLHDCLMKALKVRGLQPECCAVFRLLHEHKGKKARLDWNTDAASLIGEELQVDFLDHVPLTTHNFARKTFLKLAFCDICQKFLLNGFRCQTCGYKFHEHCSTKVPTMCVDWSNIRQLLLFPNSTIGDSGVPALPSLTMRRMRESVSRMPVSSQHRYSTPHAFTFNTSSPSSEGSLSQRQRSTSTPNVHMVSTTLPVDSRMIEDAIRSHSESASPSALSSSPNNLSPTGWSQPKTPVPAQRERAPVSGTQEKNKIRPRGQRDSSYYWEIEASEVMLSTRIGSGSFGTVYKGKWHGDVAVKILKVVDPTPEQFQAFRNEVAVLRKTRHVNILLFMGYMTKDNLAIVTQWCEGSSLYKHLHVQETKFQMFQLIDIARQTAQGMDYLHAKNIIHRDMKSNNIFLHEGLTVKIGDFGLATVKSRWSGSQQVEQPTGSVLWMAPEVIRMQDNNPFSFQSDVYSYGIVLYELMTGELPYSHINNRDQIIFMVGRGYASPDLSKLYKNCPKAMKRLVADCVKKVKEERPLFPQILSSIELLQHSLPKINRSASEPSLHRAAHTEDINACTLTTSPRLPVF
T8 sequence (P15056 whole entry): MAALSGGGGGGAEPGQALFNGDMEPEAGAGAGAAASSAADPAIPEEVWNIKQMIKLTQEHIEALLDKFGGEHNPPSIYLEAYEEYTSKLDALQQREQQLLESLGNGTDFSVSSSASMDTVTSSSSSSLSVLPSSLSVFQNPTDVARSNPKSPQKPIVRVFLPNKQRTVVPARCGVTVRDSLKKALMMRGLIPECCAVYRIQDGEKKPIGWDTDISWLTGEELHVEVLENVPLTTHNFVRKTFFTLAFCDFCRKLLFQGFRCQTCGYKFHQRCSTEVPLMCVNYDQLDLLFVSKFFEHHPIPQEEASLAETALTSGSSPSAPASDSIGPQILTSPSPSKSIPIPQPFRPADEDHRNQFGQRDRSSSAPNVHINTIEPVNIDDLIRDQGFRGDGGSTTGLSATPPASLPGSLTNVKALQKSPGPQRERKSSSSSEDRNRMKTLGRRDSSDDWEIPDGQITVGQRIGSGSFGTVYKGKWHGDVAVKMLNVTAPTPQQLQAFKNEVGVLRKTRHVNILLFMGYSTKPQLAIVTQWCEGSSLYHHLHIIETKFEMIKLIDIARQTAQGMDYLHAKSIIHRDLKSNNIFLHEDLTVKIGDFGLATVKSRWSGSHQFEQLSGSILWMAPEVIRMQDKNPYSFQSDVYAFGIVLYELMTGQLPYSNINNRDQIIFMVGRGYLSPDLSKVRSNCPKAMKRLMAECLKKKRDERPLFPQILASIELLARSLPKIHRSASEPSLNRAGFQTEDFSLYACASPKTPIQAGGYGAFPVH
T6 sequence (P15056 with tags, fused parts or gaps V600E): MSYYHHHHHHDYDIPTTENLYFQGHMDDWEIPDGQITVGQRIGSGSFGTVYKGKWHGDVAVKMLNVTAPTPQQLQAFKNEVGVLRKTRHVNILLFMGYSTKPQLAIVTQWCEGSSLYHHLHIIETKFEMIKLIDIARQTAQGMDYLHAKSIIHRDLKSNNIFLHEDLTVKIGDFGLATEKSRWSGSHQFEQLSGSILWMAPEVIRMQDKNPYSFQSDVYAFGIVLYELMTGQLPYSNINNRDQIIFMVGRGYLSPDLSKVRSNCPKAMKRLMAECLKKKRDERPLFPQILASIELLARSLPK
Sequence of MAP4K4 (O95819 whole entry): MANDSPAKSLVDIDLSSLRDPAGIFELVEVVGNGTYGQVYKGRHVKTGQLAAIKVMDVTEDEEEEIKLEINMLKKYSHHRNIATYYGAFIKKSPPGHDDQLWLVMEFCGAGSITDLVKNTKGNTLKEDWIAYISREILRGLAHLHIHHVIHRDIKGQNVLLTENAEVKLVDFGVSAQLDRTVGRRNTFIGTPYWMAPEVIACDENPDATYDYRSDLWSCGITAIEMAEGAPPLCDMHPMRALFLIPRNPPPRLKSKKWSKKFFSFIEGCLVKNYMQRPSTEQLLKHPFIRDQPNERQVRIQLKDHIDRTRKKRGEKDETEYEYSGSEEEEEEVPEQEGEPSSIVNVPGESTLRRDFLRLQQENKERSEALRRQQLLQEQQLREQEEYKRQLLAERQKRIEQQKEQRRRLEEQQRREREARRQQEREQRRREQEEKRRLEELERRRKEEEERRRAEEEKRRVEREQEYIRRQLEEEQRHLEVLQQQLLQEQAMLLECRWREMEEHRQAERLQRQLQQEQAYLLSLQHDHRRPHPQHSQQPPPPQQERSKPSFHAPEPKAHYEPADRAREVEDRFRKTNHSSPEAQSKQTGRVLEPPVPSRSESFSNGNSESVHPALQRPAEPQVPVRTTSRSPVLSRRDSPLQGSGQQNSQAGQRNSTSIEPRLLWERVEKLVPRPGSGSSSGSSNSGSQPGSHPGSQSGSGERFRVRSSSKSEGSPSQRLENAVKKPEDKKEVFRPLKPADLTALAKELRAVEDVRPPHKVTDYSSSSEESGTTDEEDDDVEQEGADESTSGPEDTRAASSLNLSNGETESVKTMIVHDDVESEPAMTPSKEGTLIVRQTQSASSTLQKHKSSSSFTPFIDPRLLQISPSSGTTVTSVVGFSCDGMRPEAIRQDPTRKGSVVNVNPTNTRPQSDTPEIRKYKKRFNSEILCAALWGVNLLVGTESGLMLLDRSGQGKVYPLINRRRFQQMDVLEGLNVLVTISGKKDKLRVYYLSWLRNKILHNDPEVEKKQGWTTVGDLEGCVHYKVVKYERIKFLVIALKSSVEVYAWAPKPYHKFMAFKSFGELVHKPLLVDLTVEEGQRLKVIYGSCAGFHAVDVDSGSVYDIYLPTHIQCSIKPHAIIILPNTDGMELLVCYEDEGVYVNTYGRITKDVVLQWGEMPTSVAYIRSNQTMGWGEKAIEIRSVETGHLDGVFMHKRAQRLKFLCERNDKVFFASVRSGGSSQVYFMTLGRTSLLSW

Cc1ccccc1C(=O)c1c[nH]c2nccc(-c3cccc(/C=C/C(=O)O)c3)c12 [Compound P-0094]
≤ 10 µM: Stk6 | Btk | Gsk3β | Ret

Cc1cc(C)cc(-c2ccnc3[nH]ccc23)c1 [Compound P-0159]
≤ 10 µM: Gsk3β | Ret

Cc1c(NS(C)(=O)=O)cccc1C(=O)c1c[nH]c2ncc(Br)cc12 [Compound P-0180, N-[3-(5-Bromo-1H-pyrrolo[2,3-b]pyridine-3-carbonyl)-2-methyl-phenyl]-methanesulfonamide]
≤ 10 µM: Fms | FGFR1 | B-Raf V600E | c-Raf-1 | B-Raf | Kdr | Gsk3β | Kit | Flt1

Cc1ccc(-c2c(C)[nH]c3ncccc23)s1 [Compound P-0207]
≤ 10 µM: Stk6 | Gsk3β

CS(=O)(=O)Nc1cccc(-c2ccnc3[nH]cc(C(=O)c4ccccc4F)c23)c1 [Compound P-0236]
≤ 10 µM: Gsk3β | Ret

Cc1cc(C)cc(-c2ccnc3[nH]cc(Sc4ccccc4)c23)c1 [Compound P-0252]
≤ 10 µM: B-Raf V600E | Gsk3β

O=C(c1c(F)ccc(NS(=O)(=O)c2ccccc2)c1F)c1c[nH]c2ncc(F)cc12 [Compound P-0902, N-[2,4-Difluoro-3-(5-fluoro-1H-pyrrolo[2,3-b]pyridine-3-carbonyl)-phenyl]-benzenesulfonamide]
≤ 10 µM: FGFR1 | B-Raf V600E | MAP4K4 | c-Raf-1 | B-Raf | Gsk3β

O=C(c1c(F)ccc(NS(=O)(=O)c2ccccc2)c1F)c1c[nH]c2ncccc12 [Compound P-0913, N-[2,4-Difluoro-3-(1H-pyrrolo[2,3-b]pyridine-3-carbonyl)-phenyl]-benzenesulfonamide]
≤ 10 µM: Fms | FGFR1 | B-Raf V600E | MAP4K4 | c-Raf-1 | B-Raf | Gsk3β | Kit

O=[N+]([O-])c1cccc(Sc2c[nH]c3nccc(-c4cccc(C(F)(F)F)c4)c23)c1 [Compound P-0969]
≤ 10 µM: Gsk3β

CC(=O)Nc1ccc(F)c(C(=O)c2c[nH]c3ncc(-c4cccnc4)cc23)c1F [Compound P-1002, N-[2,4-Difluoro-3-(5-pyridin-3-yl-1H-pyrrolo[2,3-b]pyridine-3-carbonyl)-phenyl]-acetamide]
not listed: Stk6 | Btk | Ret | B-Raf | Kdr | MAP4K4 | Src
≤ 10 µM: all other assays above

CC(C)(C)OC(=O)Nc1ccc(F)c(C(=O)c2c[nH]c3ncc(Br)cc23)c1F [Compound P-1142]
≤ 10 µM: FGFR1 | Gsk3β

NC(=O)c1cccc(-c2ccnc3[nH]cc(C(=O)c4ccccc4F)c23)c1 [Compound P-1181]
≤ 10 µM: FGFR1 | B-Raf V600E | Src | Gsk3β | Kit | Flt1 | Ret
